Patent US20080182781A1, “Process for the Preparation of Peptides” (priority 2004, published 2008)
Where two headings read alike, the source gives them in different places. Where a SMILES comes first, the peptide text is derived from it. Bridges are numbered along the chain shown (N, C = ends). [ ]: non-standard residue; d: D form. hArg = N=C(N)NCCCC[C@H](N)C(=O)O; Mpa = O=C(O)CCS

System: ADP induced platelet aggregation
Format: cell-based
Conditions: human PRP
Description: The bioactivity of peptide of formula (1) is checked using platelet aggregation inhibition assay using 4× Laser Aggregometer (EMA). Freshly venous Blood from consented human donors are drawn and collected in citrated buffer. The platelet rich plasma (PRP) and platelet poor plasma are separated by centrifugation. Platelet count in PRP is adjusted to 2-3×10^8 platelets/ml. After adjusting the baseline aggregation with PPP, the PRP was treated with […] ADP and checked the percent total aggregation. The PRP is then first incubated with varying concentrations of reference standard and synthesized peptide of formula (1). ADP is then added to check the inhibition of aggregation. The reproducibility of bioactivity of synthesized peptide of formula 1 is checked several times and compared with reference standards.

For `N=C(N)NCCCC[C@@H]1NC(=O)CCSSC[C@@H](C(N)=O)NC(=O)[C@@H]2CCCN2C(=O)[C@H](Cc2c[nH]c3ccccc23)NC(=O)[C@H](CC(=O)O)NC(=O)CNC1=O` [SP of formula 1] ([Mpa][hArg]GDWPC-NH2; disulfide 1-7), the “% Inhibition of ADP induced aggregation” value (Donor 1, 140 nM) was 44.6%, the “% Inhibition of ADP induced aggregation” value (Donor 1, 280 nM) was 61.40% and the “% Inhibition of ADP induced aggregation” value (Donor 2, 70 nM) was 46.66%. The “% Inhibition of ADP induced aggregation” value (Donor 2, 140 nM) was 51.16%, the “% Inhibition of ADP induced aggregation” value (Donor 2, 280 nM) was 67.74% and the “% Inhibition of ADP induced aggregation” value (Donor 3, 70 nM) was 57.42%. The “% Inhibition of ADP induced aggregation” value (Donor 3, 140 nM) was 60.28%, the “% Inhibition of ADP induced aggregation” value (Donor 4, 140 nM) was 20.52% and the “% Inhibition of ADP induced aggregation” value (Donor 4, 280 nM) was 42.73%. For the same compound, the “% Inhibition of ADP induced aggregation” value (Donor 5, 70 nM) was 52.63%, the “% Inhibition of ADP induced aggregation” value (Donor 5, 140 nM) was 87.21% and the “% Inhibition of ADP induced aggregation” value (Donor 6, 140 nM) was 82.92%. For the same compound, the IC50 (12 experiments, read-out: IC50 dose, inhibition of ADP induced platelet aggregation) was < 140 nM and the “inhibition of ADP induced platelet aggregation” value (seen in most of the samples) was “more than 50%”.
